The source of these data is ChEMBL document CHEMBL1201862, “PubChem BioAssay data set” (2004).

In experiment [1] the target is T1, Sentrin-specific protease 6 (Homo sapiens, UniProt Q9GZR1).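 Note: Luminescence-based dose-response confirmatory assay of SENP6 inhibition, following up an ultra-high-throughput screen.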
T1 sequence (Q9GZR1 whole entry): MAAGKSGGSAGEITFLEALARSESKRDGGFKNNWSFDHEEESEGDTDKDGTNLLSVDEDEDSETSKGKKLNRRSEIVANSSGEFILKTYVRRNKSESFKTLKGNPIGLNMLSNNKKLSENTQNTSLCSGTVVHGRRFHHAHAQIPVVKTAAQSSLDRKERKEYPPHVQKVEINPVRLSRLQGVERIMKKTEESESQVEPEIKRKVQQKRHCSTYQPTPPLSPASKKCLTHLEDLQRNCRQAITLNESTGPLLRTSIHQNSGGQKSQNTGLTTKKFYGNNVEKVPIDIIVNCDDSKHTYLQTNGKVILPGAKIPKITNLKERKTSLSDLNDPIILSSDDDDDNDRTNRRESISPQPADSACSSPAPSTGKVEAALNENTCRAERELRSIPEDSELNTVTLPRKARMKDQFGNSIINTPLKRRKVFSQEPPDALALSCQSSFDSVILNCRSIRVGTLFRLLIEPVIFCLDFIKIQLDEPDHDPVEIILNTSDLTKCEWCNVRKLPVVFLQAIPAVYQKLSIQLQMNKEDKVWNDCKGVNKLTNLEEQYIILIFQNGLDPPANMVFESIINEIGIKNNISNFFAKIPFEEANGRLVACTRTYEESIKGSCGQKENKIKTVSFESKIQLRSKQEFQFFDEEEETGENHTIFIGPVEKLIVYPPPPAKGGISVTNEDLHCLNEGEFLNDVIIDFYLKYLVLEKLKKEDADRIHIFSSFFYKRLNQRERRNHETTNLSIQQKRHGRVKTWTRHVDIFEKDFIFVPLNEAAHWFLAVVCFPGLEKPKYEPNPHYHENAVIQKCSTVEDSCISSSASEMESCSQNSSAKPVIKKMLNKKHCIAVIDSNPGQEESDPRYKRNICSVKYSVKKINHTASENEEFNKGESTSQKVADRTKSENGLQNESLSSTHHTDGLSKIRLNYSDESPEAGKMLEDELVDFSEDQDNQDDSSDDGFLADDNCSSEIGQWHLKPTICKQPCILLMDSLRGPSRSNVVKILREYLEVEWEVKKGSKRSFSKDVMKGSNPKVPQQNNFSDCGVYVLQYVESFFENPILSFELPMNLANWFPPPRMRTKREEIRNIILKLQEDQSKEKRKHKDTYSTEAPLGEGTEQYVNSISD
In kind it is functional.

Experiment [2] addresses T2, Sentrin-specific protease 8 (Homo sapiens, UniProt Q96LD8).
T2 sequence (Q96LD8 whole entry): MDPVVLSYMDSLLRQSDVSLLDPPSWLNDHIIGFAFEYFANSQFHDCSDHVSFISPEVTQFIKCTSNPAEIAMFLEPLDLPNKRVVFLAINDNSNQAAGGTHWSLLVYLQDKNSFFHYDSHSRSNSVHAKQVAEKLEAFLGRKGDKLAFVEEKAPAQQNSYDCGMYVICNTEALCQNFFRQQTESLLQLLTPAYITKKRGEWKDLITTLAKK
In kind it is functional.

For experiment [3], the target named is T3, Sentrin-specific protease 7 (Homo sapiens, UniProt Q9BQF6).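 Note: Luminescence-based dose-response confirmation of ultra-high-throughput screening hits, measuring inhibition of SENP7.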
T3 sequence (Q9BQF6 whole entry): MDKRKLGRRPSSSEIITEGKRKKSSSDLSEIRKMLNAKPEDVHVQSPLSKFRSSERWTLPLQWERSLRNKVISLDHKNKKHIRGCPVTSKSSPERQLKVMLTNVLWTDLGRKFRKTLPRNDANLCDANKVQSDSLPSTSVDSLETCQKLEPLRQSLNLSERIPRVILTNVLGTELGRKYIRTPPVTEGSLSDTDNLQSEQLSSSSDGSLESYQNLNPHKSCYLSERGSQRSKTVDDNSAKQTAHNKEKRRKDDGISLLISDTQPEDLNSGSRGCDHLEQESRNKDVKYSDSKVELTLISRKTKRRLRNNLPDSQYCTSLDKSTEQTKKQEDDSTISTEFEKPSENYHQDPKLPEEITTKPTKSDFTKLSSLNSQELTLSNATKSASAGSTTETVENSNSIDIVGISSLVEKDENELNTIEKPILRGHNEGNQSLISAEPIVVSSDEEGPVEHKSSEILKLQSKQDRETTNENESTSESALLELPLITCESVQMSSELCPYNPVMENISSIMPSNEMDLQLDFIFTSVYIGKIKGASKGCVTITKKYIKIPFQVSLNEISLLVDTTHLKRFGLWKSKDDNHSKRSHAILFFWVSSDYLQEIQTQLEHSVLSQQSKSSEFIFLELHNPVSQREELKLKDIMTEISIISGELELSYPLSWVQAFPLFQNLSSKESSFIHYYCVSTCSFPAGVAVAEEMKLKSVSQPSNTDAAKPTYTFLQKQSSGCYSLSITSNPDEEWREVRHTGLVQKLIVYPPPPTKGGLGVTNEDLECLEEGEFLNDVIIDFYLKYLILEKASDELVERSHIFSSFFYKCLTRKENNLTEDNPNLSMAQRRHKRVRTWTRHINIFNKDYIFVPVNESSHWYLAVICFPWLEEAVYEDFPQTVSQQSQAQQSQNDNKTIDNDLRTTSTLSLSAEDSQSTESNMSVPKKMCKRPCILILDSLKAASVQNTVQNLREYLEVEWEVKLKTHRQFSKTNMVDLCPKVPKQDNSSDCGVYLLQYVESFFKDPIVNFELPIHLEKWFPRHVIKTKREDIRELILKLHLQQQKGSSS
In kind it is functional.

In a further experiment the target is T4, Caspase-3 (Homo sapiens, UniProt P42574).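 Note: Dose-response selectivity test against caspase-3 for candidate inhibitors of sentrin-specific proteases (SENPs).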
T4 sequence (P42574 whole entry): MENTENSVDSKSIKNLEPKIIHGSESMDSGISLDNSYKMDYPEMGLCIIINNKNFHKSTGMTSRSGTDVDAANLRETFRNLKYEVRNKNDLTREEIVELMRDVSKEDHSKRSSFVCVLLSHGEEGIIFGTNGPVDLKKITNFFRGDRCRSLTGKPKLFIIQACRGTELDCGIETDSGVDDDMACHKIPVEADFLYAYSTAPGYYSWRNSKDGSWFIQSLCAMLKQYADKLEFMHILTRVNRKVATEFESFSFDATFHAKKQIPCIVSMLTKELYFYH
In kind it is functional.

Experiment [4] deals with T5, Hepatocyte nuclear factor 4-alpha (Homo sapiens, UniProt P41235).
T5 sequence (P41235 whole entry): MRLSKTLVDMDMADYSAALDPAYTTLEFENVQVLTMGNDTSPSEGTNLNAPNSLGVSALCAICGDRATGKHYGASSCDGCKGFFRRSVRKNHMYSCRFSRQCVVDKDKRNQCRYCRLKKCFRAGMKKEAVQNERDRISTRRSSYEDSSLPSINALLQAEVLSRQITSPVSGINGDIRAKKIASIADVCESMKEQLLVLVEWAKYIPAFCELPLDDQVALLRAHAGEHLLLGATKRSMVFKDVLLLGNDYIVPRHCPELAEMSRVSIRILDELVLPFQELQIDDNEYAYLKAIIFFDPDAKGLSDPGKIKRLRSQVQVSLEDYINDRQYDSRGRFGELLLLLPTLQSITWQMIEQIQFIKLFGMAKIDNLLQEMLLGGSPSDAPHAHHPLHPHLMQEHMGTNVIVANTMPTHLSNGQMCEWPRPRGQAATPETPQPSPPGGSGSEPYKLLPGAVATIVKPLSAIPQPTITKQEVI
In kind it is functional, cell-based.

Experiment [5] concerns the target T6, Long-chain-fatty-acid--AMP ligase FadD28 (Mycobacterium tuberculosis, UniProt P9WQ59).
T6 sequence (P9WQ59 whole entry): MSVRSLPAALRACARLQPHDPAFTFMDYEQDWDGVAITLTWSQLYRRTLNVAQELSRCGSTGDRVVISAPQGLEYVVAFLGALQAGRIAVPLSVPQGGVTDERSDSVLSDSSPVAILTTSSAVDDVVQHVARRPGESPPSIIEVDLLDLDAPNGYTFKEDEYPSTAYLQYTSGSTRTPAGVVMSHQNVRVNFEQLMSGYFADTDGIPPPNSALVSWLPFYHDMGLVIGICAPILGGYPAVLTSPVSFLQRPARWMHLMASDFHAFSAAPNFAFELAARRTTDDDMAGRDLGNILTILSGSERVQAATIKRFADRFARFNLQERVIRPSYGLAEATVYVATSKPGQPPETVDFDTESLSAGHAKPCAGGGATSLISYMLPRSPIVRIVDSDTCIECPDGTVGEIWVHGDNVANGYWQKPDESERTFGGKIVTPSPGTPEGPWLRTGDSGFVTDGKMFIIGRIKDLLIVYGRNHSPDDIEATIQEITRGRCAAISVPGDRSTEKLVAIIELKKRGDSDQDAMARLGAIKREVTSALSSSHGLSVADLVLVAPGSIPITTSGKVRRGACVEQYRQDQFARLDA
Nature of the experiment: Fluorescence polarization aasay to screen for inhibitors that compete for the binding of FadD28 to a bisubstrate Measured in Biochemical System Using Plate Reader - 2147-01_Inhibitor_Dose_CherryPick_Activity. In kind it is functional, Mycobacterium tuberculosis H37Rv. A general note: In fluorescence polarisation assays a small probe gives low polarisation when free and higher when bound to something large.

Experiment [6] deals with Luciferin 4-monooxygenase (Photinus pyralis, UniProt P08659). Nature of the experiment: firefly luciferase enzyme inhibitors, dose response, biochemical, luminescence (AID 1891).
A short description of experiment [7]: Luminescence Cell-Based Dose Confirmation HTS to Identify Inhibitors of Platelet Dense Granule Release. [Related pubchem assays: 1663 (Primary HTS), 1678 (Summary of Project)]. In kind it is functional.
For experiment [8], the target named is T7, Heat shock factor protein 1 (Mus musculus, UniProt P38532).
T7 sequence (P38532 whole entry): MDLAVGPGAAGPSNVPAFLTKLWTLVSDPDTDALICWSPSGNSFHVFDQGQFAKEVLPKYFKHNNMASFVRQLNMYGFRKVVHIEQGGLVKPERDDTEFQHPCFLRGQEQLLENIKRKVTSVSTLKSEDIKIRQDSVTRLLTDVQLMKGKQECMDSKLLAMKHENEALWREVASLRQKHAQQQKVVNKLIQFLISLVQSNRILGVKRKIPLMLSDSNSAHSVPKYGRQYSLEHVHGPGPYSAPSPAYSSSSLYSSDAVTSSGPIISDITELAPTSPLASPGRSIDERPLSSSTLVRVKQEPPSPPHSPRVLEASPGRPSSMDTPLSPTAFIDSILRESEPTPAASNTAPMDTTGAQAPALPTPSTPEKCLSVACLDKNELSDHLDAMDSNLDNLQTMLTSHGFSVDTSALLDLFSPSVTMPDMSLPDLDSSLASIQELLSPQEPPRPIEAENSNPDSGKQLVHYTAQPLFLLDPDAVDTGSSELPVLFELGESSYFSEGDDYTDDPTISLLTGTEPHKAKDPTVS
The experiment in a line: inhibition of MG132-induced HSE-luciferase signal, confirmation, cell-based, NIH3T3, luminescence, dose retest (AID 2382).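 Note: NIH3T3 fibroblasts with HSF1-driven luciferase reporter stressed by proteasome inhibitor MG132; luminescence from HSF1-driven luciferase expression after 8 hours of MG132 stress.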 In kind it is functional.

For the next experiment, the system named is HEK293. The experiment in a line: inhibitors of LMP1-driven NF-kB reporter, dose response, cell-based, HEK293, luciferase, cherry-pick (AID 588343). In kind it is functional. The following applies: Homo sapiens.
Experiment [9] deals with Heat shock protein HSP 90-alpha (Homo sapiens, UniProt P07900). In kind it is functional, organism-based.
A short description of experiment [10]: microbe, parasite or virus in culture. In kind it is functional. The following applies: Mycobacterium tuberculosis.

Active and inactive are the calls of the source.

Sequence of Luciferin 4-monooxygenase (P08659 whole entry): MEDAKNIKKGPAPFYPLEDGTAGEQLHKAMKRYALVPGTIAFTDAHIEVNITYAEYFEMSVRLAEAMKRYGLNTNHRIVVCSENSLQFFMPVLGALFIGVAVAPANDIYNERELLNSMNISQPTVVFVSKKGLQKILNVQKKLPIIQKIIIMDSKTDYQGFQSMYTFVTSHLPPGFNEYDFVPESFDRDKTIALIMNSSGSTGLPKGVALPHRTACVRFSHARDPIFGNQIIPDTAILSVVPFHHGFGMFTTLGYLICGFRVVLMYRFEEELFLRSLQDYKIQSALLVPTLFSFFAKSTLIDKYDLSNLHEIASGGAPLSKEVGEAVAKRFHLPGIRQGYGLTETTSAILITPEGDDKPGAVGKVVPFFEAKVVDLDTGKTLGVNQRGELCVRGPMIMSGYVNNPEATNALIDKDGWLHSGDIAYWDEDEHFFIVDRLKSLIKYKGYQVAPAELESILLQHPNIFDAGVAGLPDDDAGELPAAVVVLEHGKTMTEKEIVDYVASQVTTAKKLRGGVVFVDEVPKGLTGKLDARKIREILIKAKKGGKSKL

As to `CCOc1cccc(-c2nc3cc(C)ccc3o2)c1`, the IC50 in [1] is 15.6 µM (active); in [2], 39.6 µM (active); in experiment [3] it was 7.7 µM (active); on Caspase-3, 18.2 µM (active).

On to `CCOC(=O)CN1C(=O)S/C(=C\c2ccc(-c3cccc(C(=O)O)c3C)o2)C1=O`, for which the IC50 is 18 µM (active) in experiment [1], 16.2 µM (active) in [2], 6.97 µM (active) in experiment [3] and 45.4 µM (active) on Caspase-3.

As for `COc1ccccc1C=CC(=O)C=Cc1ccccc1OC`, the IC50 in [4] is 6.46 µM (active).

With `Cc1ccc(/C(=N/Nc2nc3ccccc3s2)C2=C(O)c3ccccc3C2=O)cc1`, in experiment [5], the AC50 is 41.1 µM (active).

For the compound `COc1cc2c(cc1OC)-c1cc(Nc3ccc4c(c3)OCCO4)nc(=O)n1CC2`, the EC50 in experiment [6] is 17.4 µM (active); in [7] it was 4.63 µM (active); in experiment [8] it was 2.04 µM (active). In addition, the AC50 with HEK293 was 27.3 µM (active).

For `Cc1ccc(S(=O)(=O)NC(=NNC(=O)c2cccc(Cl)c2)c2ccccc2)cc1`, the IC50 in experiment [1] is 13.6 µM (active); in experiment [2] it was 19.4 µM (active); in experiment [3], 5.83 µM (active); at Caspase-3 it was 10.3 µM (active).

`Oc1ccc(O)c(C=NNC(=S)NC2CC3CC2C2C=CCC32)c1` (stereo not drawn): the AC50 in experiment [5] is > 100 µM (inactive).

On to `CCC1(C)N=C(c2ccc3c(c2)OCO3)CC(c2ccccc2O)N1` (stereo not drawn), for which the IC50 in experiment [4] was 1.87 µM (active).

With `Cc1ccc(C(C[N+](=O)[O-])c2c(N)n(C)c(=O)n(C)c2=O)cc1` (stereo not drawn), the AC50 in experiment [9] was 2.5 µM (active).

Consider `Cc1nc(-c2ccccc2)sc1C(=O)/C=C/c1ccccc1`, for which the IC50 in experiment [4] is 3.43 µM (active). The CC50 in experiment [10] was 36.9 µM (active).

Broadly, the IC50 is the concentration needed to halve the response being measured. As a reminder, the AC50 is the concentration giving half of the maximal activity seen. For orientation: EC50 means the concentration giving half of the maximal effect.
